In experiment [1] the target is 26S proteasome non-ATPase regulatory subunit 14 (Homo sapiens, UniProt O00487). In words: inhibition of proteasome subunit RPN11 – biochemical, fluorescence polarization, uHTS hits, confirmation (AID 602368). The format is functional.
Experiment [2] concerns the target Eukaryotic translation initiation factor 4E (Mus musculus, UniProt P63073). Put plainly: eIF4E–eIF4G protein interaction inhibitors, dose response, biochemical, TR-FRET (AID 855).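 Note: potency for disrupting eIF4E binding to eIF4GI seen as loss of FRET.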 The format is functional.
The target in experiment [3] is 72 kDa type IV collagenase (Homo sapiens, UniProt P08253). In words: Dose Response validation of uHTS RPN11 inhibitor hits using a MMP-2 Fluorescence assay. The format is functional.
Sequence of 72 kDa type IV collagenase (P08253 whole entry): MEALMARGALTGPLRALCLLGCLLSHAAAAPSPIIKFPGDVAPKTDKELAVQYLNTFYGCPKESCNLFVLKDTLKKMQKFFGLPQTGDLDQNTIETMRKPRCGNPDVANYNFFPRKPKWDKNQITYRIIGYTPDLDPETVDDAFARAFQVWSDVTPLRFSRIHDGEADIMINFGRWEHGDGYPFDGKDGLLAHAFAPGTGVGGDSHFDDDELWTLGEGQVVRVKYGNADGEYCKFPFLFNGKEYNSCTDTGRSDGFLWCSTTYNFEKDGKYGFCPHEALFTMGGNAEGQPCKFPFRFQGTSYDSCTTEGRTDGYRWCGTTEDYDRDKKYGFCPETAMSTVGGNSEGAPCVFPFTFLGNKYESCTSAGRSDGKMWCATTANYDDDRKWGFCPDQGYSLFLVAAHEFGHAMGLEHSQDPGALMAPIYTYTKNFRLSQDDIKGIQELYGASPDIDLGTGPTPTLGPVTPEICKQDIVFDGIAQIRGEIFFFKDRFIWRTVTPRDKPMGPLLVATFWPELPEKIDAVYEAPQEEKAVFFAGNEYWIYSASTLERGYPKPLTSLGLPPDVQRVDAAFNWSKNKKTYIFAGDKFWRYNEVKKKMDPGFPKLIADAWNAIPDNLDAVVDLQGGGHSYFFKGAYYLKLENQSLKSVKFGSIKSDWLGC
For experiment [4], the target named is Peroxisome proliferator-activated receptor gamma/Nuclear receptor corepressor 2 (Homo sapiens, UniProt P37231+Q9Y618). In words: Counterscreen for NR2E3 inverse agonists: TR-FRET-based biochemical high throughput dose response assay to identify inverse agonists of the interaction between peroxisome proliferator-activated receptor gamma (PPARg) and nuclear receptor co-repressor 2 (NCOR2). The class given is functional.
Sequence of Peroxisome proliferator-activated receptor gamma/Nuclear receptor corepressor 2 (P37231 whole entry): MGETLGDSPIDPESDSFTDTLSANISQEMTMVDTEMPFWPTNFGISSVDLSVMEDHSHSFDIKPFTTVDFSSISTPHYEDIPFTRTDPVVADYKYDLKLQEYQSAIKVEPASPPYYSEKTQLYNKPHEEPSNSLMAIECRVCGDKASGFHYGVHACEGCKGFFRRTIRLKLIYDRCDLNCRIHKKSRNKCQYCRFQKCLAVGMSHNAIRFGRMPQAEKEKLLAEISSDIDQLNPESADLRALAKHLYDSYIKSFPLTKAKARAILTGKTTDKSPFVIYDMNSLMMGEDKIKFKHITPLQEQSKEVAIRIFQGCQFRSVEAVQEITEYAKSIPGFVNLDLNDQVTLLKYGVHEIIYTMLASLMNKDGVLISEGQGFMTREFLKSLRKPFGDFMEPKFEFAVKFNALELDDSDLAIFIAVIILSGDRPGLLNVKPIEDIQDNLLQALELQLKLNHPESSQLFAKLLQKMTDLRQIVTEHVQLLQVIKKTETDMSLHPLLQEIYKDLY
Sequence of Peroxisome proliferator-activated receptor gamma/Nuclear receptor corepressor 2 (Q9Y618 whole entry): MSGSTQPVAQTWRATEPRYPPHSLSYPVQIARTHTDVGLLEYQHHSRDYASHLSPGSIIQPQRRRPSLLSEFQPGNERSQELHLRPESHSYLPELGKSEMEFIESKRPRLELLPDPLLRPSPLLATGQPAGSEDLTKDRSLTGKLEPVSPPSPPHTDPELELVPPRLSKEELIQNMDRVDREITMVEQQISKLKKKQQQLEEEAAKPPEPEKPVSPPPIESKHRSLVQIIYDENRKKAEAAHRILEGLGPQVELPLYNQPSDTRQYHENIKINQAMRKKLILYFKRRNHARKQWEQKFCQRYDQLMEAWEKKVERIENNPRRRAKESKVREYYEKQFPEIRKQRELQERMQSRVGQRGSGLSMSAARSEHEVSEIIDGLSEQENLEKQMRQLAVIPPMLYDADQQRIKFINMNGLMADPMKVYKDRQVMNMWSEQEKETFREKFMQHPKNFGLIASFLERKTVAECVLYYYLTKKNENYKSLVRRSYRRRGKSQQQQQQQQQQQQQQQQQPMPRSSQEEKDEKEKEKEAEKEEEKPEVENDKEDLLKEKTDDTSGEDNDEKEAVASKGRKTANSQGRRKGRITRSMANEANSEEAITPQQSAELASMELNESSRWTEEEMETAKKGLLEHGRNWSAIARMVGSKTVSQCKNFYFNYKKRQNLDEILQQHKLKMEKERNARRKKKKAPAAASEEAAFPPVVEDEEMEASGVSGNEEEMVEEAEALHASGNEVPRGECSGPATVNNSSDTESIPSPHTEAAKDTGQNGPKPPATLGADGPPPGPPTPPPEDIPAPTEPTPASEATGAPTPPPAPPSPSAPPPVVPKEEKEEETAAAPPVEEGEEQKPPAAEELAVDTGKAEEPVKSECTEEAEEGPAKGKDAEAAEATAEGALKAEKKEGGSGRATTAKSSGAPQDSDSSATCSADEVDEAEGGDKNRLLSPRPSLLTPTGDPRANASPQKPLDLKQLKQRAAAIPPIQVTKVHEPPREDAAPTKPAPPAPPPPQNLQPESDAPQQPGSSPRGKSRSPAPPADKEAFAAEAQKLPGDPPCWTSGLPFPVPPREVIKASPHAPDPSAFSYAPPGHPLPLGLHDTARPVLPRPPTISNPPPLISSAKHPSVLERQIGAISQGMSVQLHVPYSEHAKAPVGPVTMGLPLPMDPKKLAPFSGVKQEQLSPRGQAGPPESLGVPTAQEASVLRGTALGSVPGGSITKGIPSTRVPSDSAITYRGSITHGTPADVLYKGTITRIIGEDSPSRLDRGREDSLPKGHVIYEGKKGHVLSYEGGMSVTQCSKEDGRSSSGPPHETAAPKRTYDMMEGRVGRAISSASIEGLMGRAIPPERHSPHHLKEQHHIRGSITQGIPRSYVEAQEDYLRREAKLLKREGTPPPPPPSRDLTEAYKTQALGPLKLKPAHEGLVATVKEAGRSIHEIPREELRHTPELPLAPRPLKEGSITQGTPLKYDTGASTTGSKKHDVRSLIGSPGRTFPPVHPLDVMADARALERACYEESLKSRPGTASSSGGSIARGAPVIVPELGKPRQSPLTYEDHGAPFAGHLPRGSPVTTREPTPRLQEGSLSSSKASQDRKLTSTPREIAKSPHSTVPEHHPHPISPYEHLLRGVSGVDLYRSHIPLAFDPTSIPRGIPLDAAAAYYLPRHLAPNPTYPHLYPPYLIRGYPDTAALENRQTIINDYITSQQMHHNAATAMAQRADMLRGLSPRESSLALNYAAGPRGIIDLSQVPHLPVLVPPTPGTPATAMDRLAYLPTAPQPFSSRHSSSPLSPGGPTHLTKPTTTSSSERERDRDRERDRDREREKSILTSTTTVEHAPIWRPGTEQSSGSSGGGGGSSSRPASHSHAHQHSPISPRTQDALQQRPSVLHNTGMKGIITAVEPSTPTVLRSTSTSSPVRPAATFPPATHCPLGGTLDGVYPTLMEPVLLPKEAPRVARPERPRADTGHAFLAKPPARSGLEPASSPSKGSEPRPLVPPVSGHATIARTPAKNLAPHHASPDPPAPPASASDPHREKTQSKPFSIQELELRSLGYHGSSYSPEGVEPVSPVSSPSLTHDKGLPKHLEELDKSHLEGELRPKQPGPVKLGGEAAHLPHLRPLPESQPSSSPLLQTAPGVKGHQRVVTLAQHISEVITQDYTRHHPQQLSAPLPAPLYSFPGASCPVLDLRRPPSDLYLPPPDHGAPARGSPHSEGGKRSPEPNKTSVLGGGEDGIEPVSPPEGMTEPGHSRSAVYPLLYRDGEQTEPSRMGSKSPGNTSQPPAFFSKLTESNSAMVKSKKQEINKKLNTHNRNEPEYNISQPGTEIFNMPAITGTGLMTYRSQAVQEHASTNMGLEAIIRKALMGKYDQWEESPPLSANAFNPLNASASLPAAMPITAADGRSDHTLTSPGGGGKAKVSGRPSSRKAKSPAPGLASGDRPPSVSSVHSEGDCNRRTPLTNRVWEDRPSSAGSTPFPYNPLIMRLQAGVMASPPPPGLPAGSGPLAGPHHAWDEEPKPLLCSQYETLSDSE

Experiment [5] addresses Prothrombin (Bos taurus, UniProt P00735). In words: thrombin inhibition, dose response, biochemical, fluorescence polarization, uHTS hits (AID 602369). The class given is functional.
Experiment [6] addresses Photoreceptor-specific nuclear receptor (Homo sapiens, UniProt Q9Y5X4). Put plainly: NR2E3 inverse agonists, dose response, biochemical, TR-FRET (AID 463256). The format is functional.
Experiment [7] can be described thus: Artemis endonuclease inhibitor potency, dose response, biochemical, fluorescence intensity (AID 720701).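 Note: Artemis endonuclease enzyme.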 The class given is functional.
In experiment [8] the target is T1, Glutathione-S-transferase (Schistosoma japonicum, UniProt Q26513).
T1 sequence (Q26513 whole entry): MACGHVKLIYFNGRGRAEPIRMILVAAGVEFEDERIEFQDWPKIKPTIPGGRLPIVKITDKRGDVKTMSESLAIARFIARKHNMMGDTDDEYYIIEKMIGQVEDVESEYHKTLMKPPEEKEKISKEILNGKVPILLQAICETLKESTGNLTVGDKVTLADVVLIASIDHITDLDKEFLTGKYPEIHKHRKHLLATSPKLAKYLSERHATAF
In words: biotin-GST/anti-GST TR-FRET signal inhibitors, dose response, artefact control for Vif-APOBEC3G degradation inhibitor project, biochemical (AID 1117362). The class given is functional.

The target in experiment [9] is Mitogen-activated protein kinase 10 (Homo sapiens, UniProt P53779). Put plainly: Dose response biochemical screening assay for inhibitors of c-Jun N-Terminal Kinase 3 (JNK3). [Related pubchem assays: 746 ].
The target of the next experiment is T2, Cysteine protease ATG4B (Homo sapiens, UniProt Q9Y4P1).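 Note: Fluorescence-based dose-response confirmation assay measuring inhibition of ATG4B activity.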
T2 sequence (Q9Y4P1 whole entry): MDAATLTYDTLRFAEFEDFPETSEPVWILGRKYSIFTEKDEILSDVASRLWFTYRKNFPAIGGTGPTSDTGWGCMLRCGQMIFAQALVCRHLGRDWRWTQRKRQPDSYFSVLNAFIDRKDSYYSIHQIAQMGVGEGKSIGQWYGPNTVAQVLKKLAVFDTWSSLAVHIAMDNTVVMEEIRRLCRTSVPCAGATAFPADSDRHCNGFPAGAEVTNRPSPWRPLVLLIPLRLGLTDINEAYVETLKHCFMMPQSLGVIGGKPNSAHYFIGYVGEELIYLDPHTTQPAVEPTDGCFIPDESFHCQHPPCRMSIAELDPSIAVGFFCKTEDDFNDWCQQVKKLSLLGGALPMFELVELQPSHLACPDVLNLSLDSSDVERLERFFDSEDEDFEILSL
The format is functional.

Another experiment concerns the target Phospholipase A2 (Homo sapiens, UniProt P04054). The class given is functional.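 Note: confirmatory dose-response counterscreen on phospholipase A2, testing hits that came from an ultra-high-throughput screen for ATG4B inhibitors.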
Experiment [10] deals with Disintegrin and metalloproteinase domain-containing protein 17 (Homo sapiens, UniProt P78536). Put plainly: ADAM17 protease inhibitors, dose response, counter-screen for ADAM10 exosite inhibitor project, biochemical, quenched FRET substrate (AID 743253).
Experiment [11] is described as follows: ADAM10 inhibitors, peptide cleavage, dose response, biochemical, QFRET (AID 743254).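 Note: ADAM10 enzyme with the DM2 quenched FRET peptide as substrate; EDANS fluorescence gain as the protease cuts the substrate; inhibitor potency against ADAM10 proteolytic activity.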
In experiment [12] the target is Prothrombin (Homo sapiens, UniProt P00734). In words: Thrombin 1536 HTS Dose Response Confirmation. [Related pubchem assays: 1046 (Thrombin 1536 HTS; hits were confirmed in this assay)]. The class given is functional.
Experiment [13] has as its target G-protein coupled receptor 183 (Homo sapiens, UniProt P32249). In words: SAR confirmation of small molecule antagonists of the EBI2 receptor via a luminescent beta-arrestin assa. The format is functional.
A short description of experiment [14]: RKO cell viability reduction, dose response, CellTiter-Glo luminescence (AID 1117322). The class given is functional.
Experiment [15] has as its target T3, Nuclear receptor subfamily 0 group B member 1 (Homo sapiens, UniProt P51843).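 Note: HEK293T cells transfected with SF-1 and DAX-1 plus StAR promoter luciferase reporter.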
T3 sequence (P51843 whole entry): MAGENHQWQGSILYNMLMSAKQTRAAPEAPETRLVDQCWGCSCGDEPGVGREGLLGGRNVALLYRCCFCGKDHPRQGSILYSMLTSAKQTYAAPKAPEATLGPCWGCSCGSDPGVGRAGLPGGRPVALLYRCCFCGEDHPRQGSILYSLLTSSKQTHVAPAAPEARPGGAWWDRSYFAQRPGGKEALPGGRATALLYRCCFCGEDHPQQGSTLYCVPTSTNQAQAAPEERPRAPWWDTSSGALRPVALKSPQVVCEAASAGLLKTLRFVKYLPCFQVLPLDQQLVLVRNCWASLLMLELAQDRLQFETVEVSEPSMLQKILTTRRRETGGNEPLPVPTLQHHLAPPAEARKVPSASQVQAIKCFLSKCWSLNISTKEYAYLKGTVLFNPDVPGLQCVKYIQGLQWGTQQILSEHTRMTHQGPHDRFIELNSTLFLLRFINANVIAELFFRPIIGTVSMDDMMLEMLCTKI
The format is functional, cell-based.

The nature of experiment [16]: cytotoxicity toward Colo320 cells – cell-based, CellTiter-Glo luminescence, IC50, dose response (AID 1117334). The class given is functional. Particulars: COLO 320.
Another experiment can be described thus: cells. The format is functional, cell-based.
A short description of experiment [17]: cytotoxicity toward HT-29 cells – cell-based, CellTiter-Glo luminescence, IC50, dose response (AID 1117330). The format is functional.
The next experiment addresses Paired box protein Pax-8 (Homo sapiens, UniProt Q06710). Put plainly: inhibitors of PAX8-driven TPO luciferase reporter, dose response, RMG-I cells, cherry-pick (AID 687027).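 Note: luciferase reporter driven by Pax8 target thyroperoxidase promoter measured by SteadyGlo luminescence.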 The format is functional, cell-based.
The nature of experiment [18]: HeLa 2N DNA content increase, dose response, cell-based, IC50 (AID 1117349). The class given is functional.
Experiment [19] in a line: cytotoxicity toward HCT116 cells – cell-based, CellTiter-Glo luminescence, IC50, dose response (AID 1117332). The format is functional. The conditions noted are these: HCT-116.
A short description of experiment [20]: HCT116 cell viability decrease, GSK3B pretreatment – CellTiter-Glo, IC50, dose response (AID 1117339). The format is functional. Particulars: HCT-116.
Experiment [21] can be described thus: HeLa 4N DNA content increase, dose response, cell-based, IC50 (AID 1117351). The format is functional.

Structures can show the parent of a compound that is named as a salt. Calls of active or inactive are those of the source.

Sequence of G-protein coupled receptor 183 (P32249 whole entry): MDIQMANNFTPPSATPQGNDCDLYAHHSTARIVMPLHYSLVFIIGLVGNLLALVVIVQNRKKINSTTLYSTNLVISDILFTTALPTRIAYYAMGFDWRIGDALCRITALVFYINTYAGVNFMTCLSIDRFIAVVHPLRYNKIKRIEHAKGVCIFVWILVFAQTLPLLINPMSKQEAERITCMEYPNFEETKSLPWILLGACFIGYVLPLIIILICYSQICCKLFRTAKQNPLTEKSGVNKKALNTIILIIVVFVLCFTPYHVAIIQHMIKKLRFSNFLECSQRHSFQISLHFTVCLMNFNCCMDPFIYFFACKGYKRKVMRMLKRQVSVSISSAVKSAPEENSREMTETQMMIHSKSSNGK
Sequence of Photoreceptor-specific nuclear receptor (Q9Y5X4 whole entry): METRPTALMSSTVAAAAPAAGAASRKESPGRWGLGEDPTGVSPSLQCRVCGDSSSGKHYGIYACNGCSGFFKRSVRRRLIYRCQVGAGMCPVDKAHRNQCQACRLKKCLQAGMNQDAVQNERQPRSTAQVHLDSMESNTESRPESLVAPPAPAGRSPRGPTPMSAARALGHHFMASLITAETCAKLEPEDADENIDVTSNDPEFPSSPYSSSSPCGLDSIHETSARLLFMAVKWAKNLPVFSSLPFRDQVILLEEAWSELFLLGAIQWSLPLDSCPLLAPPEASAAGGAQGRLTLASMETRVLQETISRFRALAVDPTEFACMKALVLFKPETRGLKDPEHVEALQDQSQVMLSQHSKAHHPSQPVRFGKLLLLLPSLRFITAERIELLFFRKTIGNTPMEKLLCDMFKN
Sequence of Phospholipase A2 (P04054 whole entry, the tested form may be a part): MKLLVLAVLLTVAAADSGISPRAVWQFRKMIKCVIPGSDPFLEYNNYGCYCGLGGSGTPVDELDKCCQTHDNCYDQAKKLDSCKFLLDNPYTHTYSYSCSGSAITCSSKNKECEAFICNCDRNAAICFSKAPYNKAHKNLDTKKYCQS
Sequence of Eukaryotic translation initiation factor 4E (P63073 whole entry): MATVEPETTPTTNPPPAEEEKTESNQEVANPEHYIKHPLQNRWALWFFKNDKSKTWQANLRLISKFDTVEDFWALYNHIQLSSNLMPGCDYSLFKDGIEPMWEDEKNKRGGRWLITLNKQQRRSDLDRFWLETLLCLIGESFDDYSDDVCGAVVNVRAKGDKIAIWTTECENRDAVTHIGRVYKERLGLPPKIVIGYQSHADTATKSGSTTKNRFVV

`C=CCn1c(SCC(=O)Nc2ccc(-c3nc4ccc(C)cc4s3)cc2)nnc1-c1ccccc1`: the concentration for half-maximal inhibition (IC50) in experiment [1] was 23.7 µM (active); in experiment [2] it was > 64 µM (inactive); in experiment [3], > 100 µM (inactive); in experiment [4], 0.737 µM (active); on Prothrombin [5], 51.4 µM (active); in experiment [6], 0.774 µM (active).
Take `CCCOc1ccc(N)cc1N`: the IC50 is > 20 µM (inactive) in experiment [7] and 15.8 µM (active) in experiment [8].
For `CCOC(=O)c1c(-c2ccccc2)[nH]c2ccc(O)cc12`, the IC50 in experiment [9] is on record as 22.2 µM (not active).
`O=c1cc(O)[nH]c2c1sc1nc(C(F)(F)F)c3c(c12)CCCCC3`: the half-inhibitory concentration (IC50) is 11.1 µM (active) on Cysteine protease ATG4B, 9.53 µM (active) at Phospholipase A2, > 39.8 µM (not active) in [4] and > 39.8 µM (not active) in experiment [6].
With `COC(=O)[C@]12C[C@H](CC(=O)NCCC(C)C)C(=O)N(Cc3cccc4ccccc34)C1=C[C@H](C(C)C)O[C@@H]2C1CC1`, the IC50 in experiment [10] and in experiment [11] was > 69.5 µM (inactive) each time.
Take `N#Cc1c(/N=C/c2ccco2)sc2c1CCC2`: the IC50 on Prothrombin [12] is on record as > 50 µM (not active).
For the molecule `O=C(CCCc1ccc(Br)cc1)N1CCN(Cc2ccc(Cl)cc2)CC1`, the IC50 in experiment [13] was > 1 µM (inactive).
As for `N#Cc1ccccc1S(=O)(=O)N1CCN(C(=O)/C=C/c2ccc(F)cc2)CC1`, in [13], the IC50 is 0.0482 µM (active).
On the same count and under the same terms, for `CCCCC(=O)N1CCN(C(=O)/C=C/c2ccc(Br)cc2)CC1` the value was 0.00562 µM (active).
In the case of `Nc1nc(-c2ccco2)nn1C(=O)c1ccccc1Cl`, the concentration for half-maximal inhibition (IC50) at Prothrombin [12] was 14 µM (active).
As to `CC[C@]1(O)C[C@@H]2CN(CCc3c([nH]c4ccccc34)[C@@](C(=O)OC)(c3cc4c(cc3OC)N(C)[C@H]3[C@@](O)(C(=O)OC)[C@H](OC(C)=O)[C@]5(CC)C=CCN6CC[C@]43[C@@H]65)C2)C1` [VINBLASTINE SULFATE], the 50% inhibitory concentration (IC50) in [14] was 0.001 µM (active); in [15] it was > 67.5 µM (inactive); in experiment [16] it was 0.001 µM (active); in the experiment “cells”, > 67.5 µM (inactive); in experiment [17], 0.001 µM (active); in experiment [18] it was 0.0048 µM (active). Moreover, the results for the IC50 in experiment [19], in experiment [20] and in experiment [21] were 0.001 µM (active), 0.001 µM (active) and 0.0032 µM (active), respectively. The AC50 on Paired box protein Pax-8 is < 0.26 µM (active).

(Values after ChEMBL document CHEMBL1201862, “PubChem BioAssay data set” (2004).)
